Measurements: patent publication US20150250786A1, “PYRIMIDINE HYDROXY AMIDE COMPOUNDS AS PROTEIN DEACETYLASE INHIBITORS AND METHODS OF USE THEREOF” (THE TRUSTEES OF THE UNIVERSITY OF PENNSYLVANIA, priority 2012, published 2015)
Read-outs that look alike come from different tables or passages of the source.

Assays:
mice [1] = experiment: Elevated plus maze (EPM); format: in vivo, mouse; conditions: acute administration
HDAC2 = HDAC2 (Homo sapiens, UniProt Q92769); experiment: HDAC enzyme assay, HDAC2
Chain of HDAC2 (Q92769 whole entry): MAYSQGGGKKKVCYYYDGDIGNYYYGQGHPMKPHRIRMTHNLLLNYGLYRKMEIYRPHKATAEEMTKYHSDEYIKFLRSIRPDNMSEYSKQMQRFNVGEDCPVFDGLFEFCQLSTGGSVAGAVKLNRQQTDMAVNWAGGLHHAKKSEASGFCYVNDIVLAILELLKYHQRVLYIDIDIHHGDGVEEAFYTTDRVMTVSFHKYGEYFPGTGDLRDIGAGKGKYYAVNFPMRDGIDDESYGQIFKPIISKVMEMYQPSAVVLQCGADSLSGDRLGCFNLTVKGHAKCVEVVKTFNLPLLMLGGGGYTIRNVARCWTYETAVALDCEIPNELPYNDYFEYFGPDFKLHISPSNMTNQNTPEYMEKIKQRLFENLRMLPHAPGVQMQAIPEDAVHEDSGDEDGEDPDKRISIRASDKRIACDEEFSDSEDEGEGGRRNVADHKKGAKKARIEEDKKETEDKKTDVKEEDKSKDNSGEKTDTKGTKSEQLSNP

HDAC1 = HDAC1 (Homo sapiens, UniProt Q13547); experiment: HDAC enzyme assay, HDAC1
Chain of HDAC1 (Q13547 whole entry): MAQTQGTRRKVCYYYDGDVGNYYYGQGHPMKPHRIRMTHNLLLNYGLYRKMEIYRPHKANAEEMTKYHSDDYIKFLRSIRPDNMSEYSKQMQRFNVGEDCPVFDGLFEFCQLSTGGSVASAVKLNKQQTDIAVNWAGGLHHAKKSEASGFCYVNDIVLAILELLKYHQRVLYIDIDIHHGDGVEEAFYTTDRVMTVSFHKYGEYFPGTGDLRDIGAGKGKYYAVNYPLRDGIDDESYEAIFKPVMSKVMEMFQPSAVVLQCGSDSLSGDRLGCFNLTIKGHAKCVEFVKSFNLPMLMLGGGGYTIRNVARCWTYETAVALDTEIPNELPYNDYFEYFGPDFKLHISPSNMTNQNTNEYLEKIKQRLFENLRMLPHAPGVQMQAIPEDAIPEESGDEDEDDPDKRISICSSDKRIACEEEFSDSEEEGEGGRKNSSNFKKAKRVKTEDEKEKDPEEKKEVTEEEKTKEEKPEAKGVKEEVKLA

[2] = system: RN46A-B14 serotonergic cell line; experiment: Histone H3K9 acetylation in RN46A-B14 cells (Western blot); format: cell-based, rat; conditions: 2.5 μM, 4 hours
mice [3] = experiment: Marble-burying task; format: in vivo, mouse; conditions: acute administration
HDAC6 = biological target: T1, HDAC6 (Homo sapiens, UniProt Q9UBN7); experiment: HDAC enzyme assay, HDAC6
T1 sequence (Q9UBN7 1-1215): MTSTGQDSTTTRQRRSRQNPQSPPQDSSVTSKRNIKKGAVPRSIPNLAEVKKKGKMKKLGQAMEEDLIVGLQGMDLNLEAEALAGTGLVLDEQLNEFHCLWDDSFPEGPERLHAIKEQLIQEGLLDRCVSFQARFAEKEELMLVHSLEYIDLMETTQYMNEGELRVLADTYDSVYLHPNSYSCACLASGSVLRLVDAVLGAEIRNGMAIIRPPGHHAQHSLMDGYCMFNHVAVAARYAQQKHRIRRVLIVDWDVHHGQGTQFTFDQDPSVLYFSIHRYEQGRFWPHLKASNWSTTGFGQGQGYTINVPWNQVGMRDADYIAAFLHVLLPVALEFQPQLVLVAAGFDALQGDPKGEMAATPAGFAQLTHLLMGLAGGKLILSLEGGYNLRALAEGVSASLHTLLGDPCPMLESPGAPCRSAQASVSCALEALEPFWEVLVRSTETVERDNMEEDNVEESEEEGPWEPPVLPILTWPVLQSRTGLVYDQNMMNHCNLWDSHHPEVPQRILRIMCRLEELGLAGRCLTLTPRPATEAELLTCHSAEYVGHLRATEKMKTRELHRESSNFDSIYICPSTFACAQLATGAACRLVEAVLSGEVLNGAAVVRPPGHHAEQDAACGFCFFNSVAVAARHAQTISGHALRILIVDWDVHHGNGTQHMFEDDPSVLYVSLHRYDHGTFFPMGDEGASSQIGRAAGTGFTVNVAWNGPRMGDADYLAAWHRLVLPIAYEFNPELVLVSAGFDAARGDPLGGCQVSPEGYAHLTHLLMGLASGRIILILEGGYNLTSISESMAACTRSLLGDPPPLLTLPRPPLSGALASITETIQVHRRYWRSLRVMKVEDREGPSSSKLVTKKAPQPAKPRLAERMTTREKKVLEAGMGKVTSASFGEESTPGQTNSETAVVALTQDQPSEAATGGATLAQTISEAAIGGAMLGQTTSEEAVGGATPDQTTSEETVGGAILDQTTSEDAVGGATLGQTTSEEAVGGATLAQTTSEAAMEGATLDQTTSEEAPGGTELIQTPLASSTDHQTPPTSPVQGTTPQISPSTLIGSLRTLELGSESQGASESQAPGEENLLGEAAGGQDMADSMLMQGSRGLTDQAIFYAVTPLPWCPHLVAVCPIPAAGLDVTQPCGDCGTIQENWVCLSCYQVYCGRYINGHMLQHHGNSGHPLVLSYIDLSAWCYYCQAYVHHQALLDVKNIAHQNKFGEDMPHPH

[4] = system: α-tubulin K40 acetylation in cortex, hippocampus, DRN, cerebellum; experiment: α-tubulin acetylation in brain regions after subchronic administration, WT and HDAC6 KO mice; format: in vivo, mouse
Description: Results are shown as percent change normalized to the vehicle treatment condition. The horizontal hard line depicts average and the dotted lines depict SEM of the vehicle treated wells. Representative Western blot images are presented. […] Representative Western blot images are presented. […] […] The changes in tubulin acetylation were measured in tissue lysates from cortex (ctx), hippocampus (Hpc), dorsal Raphe nucleus (DRN) and cerebellum (cb). The tubulin acetylation levels in drug-treated mice are expressed as percent change of the vehicle-treated mice of the corresponding genotype. The horizontal lines depict the average tubulin acetylation±SEM in the vehicle treated mice. The representative Western blot images show the changes induced by each drug treatment in the hippocampus (left column) and dorsal raphe (right column) of WT and HDAC6 KO mice.

[5] = system: α-tubulin acetylation in mouse whole brain lysates; experiment: α-tubulin acetylation in whole brain lysates after single i.p. administration; format: in vivo; conditions: compound 73 5 mg/kg, compound 101 50 mg/kg, tubastatin A 10 mg/kg, 30 min, 1 h, 4 h
[6] = Body weight gain during chronic treatment; format: in vivo, mouse; conditions: 4 weeks of treatment

In the case of O=C(NO)c1cnc(NC2(c3cccc(F)c3)CCCCC2)nc1 [Compound 101, 2-((1-(3-fluorophenyl)cyclohexyl)amino)-N-hydroxypyrimidine-5-carboxamide], the “behavioral changes / time in the open arms of the maze” value (mice [1]) is reported as “neither compound 73 nor compound 101 produced behavioral changes”, the “HDAC2 fold versus HDAC6 (in brackets)” value (HDAC2) is reported as “(343.2x)” and the “HDAC2 fold versus HDAC6 (in brackets)” value (HDAC2; Table 3) is reported as 342 x. The “HDAC1 fold versus HDAC6 (in brackets)” value (HDAC1; Table 3) was 283 x, the “HDAC1 fold versus HDAC6 (in brackets)” value (HDAC1; selectivity HDAC6 over HDAC1) was “(283.5x)” and the “change in histone H3K9 acetylation” value [2] was “no significant change”. For the same molecule, the “number of marbles buried” value (mice [3]) was “significantly reduced”, the IC50 (HDAC6) was 7.5 nM and the “average selectivity over class I HDACs” value (HDAC6) was 700 fold. The “α-tubulin acetylation over baseline levels” value ([4]; HDAC6 KO mice, identical treatment regimens) was “did not produce increases”, the “α-tubulin acetylation in cortex, hippocampus, DRN, cerebellum” value ([4]; wild-type mice, 24 h, 4 h, 30 m before sacrifice, compound 73 5 mg/kg, compound 101 50 mg/kg) was “significant increases” and the “α-tubulin acetylation in whole brain lysates” value [5] was “significant increases”. For the same molecule, the body weight gain [6] was “no significant effect”.
